Experimental findings from patent US20090298834A1, “4-(AMINOMETHYL)CYCLOHEXANAMINE DERIVATIVES AS CALCIUM CHANNEL BLOCKERS” (priority 2008, published 2009) are described below.

The target in test [1] is T1, human α1G T-type channels (Homo sapiens, UniProt O43497).
T1 construct: expressed in transfected cells; host or cells: HEK 293
Nature of the test: T-type calcium channel block, whole cell patch clamp (α1G). In kind it is cell-based. As to conditions: HEK cells stably expressing human α1G; mainly non-inactivated protocol; values above 10 μM represented as 10 μM, values below 0.30 μM represented as 0.30 μM. An outline of the steps: (§1)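 Resting block was measured mainly with the non-inactivated protocol: holding potential −110 mV, 1 s step to −100 mV, then a 50 ms test pulse at −40 mV. Recordings used stably transfected human α1G or α1H HEK293 lines, with compounds perfused in external solution containing 0.1-0.01% DMSO. IC50 values (μM) above 10 μM are reported as 10 μM.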
Background: The patch-clamp technique gives a direct electrical read-out from membranes.

In test [2] the target is T2, human α1H T-type channels (Homo sapiens, UniProt O95180).
T2 construct: expressed in transfected cells; host or cells: HEK 293
Nature of the test: T-type calcium channel block, whole cell patch clamp (α1H). In kind it is cell-based. To be noted: HEK cells stably expressing human α1H; mainly non-inactivated protocol; values above 10 μM represented as 10 μM. An outline of the steps: as §1

T1 sequence (O43497 whole entry): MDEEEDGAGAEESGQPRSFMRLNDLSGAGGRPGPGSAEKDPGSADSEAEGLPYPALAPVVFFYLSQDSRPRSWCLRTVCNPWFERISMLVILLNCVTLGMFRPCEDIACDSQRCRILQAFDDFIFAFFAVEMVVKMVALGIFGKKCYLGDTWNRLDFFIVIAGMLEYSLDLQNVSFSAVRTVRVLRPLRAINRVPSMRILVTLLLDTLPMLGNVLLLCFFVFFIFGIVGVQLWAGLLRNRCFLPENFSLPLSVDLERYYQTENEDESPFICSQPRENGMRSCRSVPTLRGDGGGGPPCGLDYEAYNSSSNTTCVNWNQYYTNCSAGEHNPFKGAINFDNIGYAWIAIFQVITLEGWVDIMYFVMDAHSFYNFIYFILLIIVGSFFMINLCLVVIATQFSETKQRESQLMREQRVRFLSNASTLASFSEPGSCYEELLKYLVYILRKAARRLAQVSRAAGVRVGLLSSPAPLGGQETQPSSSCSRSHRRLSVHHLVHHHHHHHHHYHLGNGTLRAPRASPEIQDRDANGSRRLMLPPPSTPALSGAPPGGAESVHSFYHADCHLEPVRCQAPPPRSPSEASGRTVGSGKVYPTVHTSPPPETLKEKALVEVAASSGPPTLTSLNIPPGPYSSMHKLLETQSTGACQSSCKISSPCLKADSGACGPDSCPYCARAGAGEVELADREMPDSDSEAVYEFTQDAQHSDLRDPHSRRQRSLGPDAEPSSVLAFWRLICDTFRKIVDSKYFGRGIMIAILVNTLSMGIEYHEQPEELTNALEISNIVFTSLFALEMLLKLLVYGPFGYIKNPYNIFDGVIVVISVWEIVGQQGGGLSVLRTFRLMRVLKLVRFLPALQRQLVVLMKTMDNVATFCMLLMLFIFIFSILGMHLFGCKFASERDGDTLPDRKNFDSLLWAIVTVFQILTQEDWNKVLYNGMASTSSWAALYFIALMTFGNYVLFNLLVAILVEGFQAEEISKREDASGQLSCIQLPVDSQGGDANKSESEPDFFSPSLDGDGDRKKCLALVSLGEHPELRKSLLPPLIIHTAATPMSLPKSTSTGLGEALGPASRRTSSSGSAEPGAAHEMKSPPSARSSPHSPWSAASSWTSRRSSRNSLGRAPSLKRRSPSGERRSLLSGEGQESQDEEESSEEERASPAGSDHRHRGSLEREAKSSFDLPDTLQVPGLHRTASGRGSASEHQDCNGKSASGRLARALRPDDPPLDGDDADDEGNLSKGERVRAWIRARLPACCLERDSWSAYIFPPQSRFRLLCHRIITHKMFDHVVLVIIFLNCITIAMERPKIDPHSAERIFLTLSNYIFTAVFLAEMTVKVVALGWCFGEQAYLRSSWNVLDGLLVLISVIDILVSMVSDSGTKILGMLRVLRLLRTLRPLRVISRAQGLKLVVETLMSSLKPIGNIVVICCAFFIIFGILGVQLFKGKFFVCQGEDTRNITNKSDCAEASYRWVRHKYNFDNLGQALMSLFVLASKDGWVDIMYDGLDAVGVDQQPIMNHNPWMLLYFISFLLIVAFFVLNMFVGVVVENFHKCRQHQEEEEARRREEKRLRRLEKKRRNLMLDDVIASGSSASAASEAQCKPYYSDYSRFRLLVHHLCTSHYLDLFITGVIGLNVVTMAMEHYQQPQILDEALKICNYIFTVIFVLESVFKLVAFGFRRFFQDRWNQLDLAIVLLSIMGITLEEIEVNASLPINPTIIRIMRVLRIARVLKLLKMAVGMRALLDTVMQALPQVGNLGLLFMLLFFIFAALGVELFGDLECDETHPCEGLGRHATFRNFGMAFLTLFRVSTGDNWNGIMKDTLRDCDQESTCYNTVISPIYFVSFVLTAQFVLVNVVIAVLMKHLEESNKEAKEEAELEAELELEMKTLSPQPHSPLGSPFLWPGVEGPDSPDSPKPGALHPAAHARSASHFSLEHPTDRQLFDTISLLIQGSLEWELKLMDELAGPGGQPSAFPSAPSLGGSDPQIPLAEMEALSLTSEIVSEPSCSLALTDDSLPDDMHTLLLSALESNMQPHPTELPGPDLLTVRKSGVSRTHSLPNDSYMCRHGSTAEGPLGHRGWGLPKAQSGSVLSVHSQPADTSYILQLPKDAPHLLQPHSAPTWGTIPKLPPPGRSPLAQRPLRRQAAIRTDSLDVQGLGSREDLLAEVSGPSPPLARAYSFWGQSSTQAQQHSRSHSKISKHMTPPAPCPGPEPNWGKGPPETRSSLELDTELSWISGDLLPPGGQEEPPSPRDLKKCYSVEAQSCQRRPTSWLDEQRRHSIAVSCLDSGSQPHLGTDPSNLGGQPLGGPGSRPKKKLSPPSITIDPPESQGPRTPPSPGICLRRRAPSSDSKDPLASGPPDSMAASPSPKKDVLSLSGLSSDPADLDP
T2 sequence (O95180 whole entry): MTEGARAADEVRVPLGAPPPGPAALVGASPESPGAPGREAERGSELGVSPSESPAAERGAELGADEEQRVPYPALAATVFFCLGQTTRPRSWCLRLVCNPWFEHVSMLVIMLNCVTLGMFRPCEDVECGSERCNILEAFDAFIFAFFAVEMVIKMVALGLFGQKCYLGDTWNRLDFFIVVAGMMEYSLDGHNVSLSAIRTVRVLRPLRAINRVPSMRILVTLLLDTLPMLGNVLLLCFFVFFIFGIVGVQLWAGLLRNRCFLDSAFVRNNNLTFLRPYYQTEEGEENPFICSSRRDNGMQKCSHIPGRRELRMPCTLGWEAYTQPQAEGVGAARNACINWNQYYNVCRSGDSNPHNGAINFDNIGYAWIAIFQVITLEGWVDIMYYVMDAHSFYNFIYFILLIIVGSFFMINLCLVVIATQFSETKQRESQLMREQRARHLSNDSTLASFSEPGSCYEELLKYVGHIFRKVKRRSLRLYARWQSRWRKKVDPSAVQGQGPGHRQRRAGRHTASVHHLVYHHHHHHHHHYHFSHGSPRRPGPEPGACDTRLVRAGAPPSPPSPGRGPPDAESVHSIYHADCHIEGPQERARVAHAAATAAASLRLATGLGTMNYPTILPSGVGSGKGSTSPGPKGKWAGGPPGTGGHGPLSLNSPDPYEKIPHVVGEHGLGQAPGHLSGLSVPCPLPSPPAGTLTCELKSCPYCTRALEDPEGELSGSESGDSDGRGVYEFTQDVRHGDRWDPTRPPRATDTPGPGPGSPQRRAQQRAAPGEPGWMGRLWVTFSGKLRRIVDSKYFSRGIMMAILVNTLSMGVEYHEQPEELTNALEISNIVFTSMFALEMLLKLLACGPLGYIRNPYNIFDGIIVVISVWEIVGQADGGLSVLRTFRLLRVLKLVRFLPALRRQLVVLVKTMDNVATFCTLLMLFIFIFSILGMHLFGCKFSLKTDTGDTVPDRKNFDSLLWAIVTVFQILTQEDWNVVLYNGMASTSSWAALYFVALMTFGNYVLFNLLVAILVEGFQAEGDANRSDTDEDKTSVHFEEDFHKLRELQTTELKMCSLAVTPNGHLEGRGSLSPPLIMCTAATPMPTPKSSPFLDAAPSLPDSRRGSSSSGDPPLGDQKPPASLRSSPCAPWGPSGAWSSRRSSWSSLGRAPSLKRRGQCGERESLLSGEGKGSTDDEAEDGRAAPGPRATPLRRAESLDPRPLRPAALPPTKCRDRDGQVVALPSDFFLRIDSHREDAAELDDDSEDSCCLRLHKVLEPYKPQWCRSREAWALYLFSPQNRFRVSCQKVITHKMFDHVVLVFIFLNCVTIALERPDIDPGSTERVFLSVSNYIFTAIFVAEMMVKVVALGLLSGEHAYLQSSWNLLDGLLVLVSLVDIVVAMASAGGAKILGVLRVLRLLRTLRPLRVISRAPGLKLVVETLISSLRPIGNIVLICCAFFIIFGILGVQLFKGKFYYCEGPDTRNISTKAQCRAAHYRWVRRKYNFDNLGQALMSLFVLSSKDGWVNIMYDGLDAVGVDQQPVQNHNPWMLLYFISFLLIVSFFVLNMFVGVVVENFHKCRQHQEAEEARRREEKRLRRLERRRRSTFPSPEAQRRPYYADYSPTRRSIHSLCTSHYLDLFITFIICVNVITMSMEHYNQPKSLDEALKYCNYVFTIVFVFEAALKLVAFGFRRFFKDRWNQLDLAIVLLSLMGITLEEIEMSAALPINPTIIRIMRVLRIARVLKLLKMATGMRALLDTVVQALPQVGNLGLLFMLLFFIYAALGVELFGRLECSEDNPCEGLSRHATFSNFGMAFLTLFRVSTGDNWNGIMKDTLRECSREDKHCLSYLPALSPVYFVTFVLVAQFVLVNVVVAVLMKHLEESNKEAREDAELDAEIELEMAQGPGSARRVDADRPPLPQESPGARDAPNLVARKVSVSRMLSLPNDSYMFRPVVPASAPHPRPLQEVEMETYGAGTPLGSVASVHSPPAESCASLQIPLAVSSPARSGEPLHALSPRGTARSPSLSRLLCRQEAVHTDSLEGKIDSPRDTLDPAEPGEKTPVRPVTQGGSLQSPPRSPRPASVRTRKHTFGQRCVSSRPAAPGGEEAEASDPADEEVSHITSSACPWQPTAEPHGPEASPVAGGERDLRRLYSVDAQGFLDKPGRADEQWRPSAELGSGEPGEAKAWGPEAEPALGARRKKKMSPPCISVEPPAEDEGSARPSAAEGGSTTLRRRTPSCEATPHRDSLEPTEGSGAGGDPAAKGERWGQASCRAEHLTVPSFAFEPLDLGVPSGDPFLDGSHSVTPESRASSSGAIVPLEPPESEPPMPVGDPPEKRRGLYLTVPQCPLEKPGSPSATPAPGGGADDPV

As usually defined, the IC50 is the midpoint of a concentration-inhibition curve. For the molecule `COc1cc(OC)cc(C(=O)NC[C@H]2CC[C@@H](NCC(=O)NC(C)(C)C)CC2)c1` [Compound 181, N-(((1s,4s)-4-(2-(tert-butylamino)-2-oxoethylamino)cyclohexyl)methyl)-3,5-dimethoxybenzamide], the IC50 in test [1] amounted to 3.65 µM; in test [2] it was 0.33 µM.

In the case of `CC(C)(C)c1nc(CN[C@H]2CC[C@@H](CNC(=O)c3cc(C(F)(F)F)cc(C(F)(F)F)c3)CC2)no1` [Compound 51, N-((cis-4-((5-tert-butyl-1,2,4-oxadiazol-3-yl)methylamino)cyclohexyl)methyl)-3,5-bis(trifluoromethyl)benzamide], the IC50 in test [1] stood at 1.15 µM; in test [2] it was 0.82 µM.

As for `O=C(C[C@H]1CC[C@@H](NC(=O)[C@@H]2CCCN2)CC1)Nc1cc(C(F)(F)F)cc(C(F)(F)F)c1` [Compound 143, (S)-N-(cis-4-(2-(3,5-bis(trifluoromethyl)phenylamino)-2-oxoethyl)cyclohexyl)pyrrolidine-2-carboxamide], the IC50 stood at 1.9 µM in test [1] and 9.94 µM in test [2].

Take `CN(C(=O)CN[C@H]1CC[C@@H](CNC(=O)c2cc(C(F)(F)F)cc(C(F)(F)F)c2)CC1)C1CCCC1` [Compound 44, N-((cis-4-(2-(cyclopentyl(methyl)amino)-2-oxoethylamino)cyclohexyl)methyl)-3,5-bis(trifluoromethyl)benzamide]: the IC50 was at most 0.3 µM in test [1] and 0.26 µM in test [2].

As to `O=C(NC[C@H]1CC[C@@H](NCC(=O)N2CCCC2)CC1)c1cc(C(F)(F)F)cc(C(F)(F)F)c1` [Compound 39, N-((cis-4-(2-oxo-2-(pyrrolidin-1-yl)ethylamino)cyclohexyl)methyl)-3,5-bis(trifluoromethyl)benzamide], the values for the IC50 in test [1] and in test [2] were 1.33 µM and 0.79 µM, respectively.

In the case of `O=C(CN[C@H]1CC[C@@H](CNC(=O)c2cc(C(F)(F)F)cc(C(F)(F)F)c2)CC1)NCC(F)(F)F` [Compound 43, N-((cis-4-(2-oxo-2-(2,2,2-trifluoroethylamino)ethylamino)cyclohexyl)methyl)-3,5-bis(trifluoromethyl)benzamide], the IC50 in test [1] amounted to 0.91 µM; in test [2], 0.45 µM.

In the case of `Cc1ccc(-c2csc(NC(=O)C[C@H]3CC[C@H](NCC(O)(C(F)(F)F)C(F)(F)F)CC3)n2)cc1` [Compound 151, N-(4-p-tolylthiazol-2-yl)-2-(trans-4-(3,3,3-trifluoro-2-hydroxy-2-(trifluoromethyl)propylamino)cyclohexyl)acetamide], the IC50 in test [1] is 0.48 µM; in test [2] it was at least 10 µM.

As for `CC1CCCCN1C(=O)CN[C@H]1CC[C@@H](CNC(=O)c2cc(C(F)(F)F)cc(C(F)(F)F)c2)CC1` (stereo partly drawn) [Compound 72, N-((cis-4-(2-(2-methylpiperidin-1-yl)-2-oxoethylamino)cyclohexyl)methyl)-3,5-bis(trifluoromethyl)benzamide], the IC50 in test [1] is at most 0.3 µM; in test [2], 0.23 µM.

`O=C(NC[C@H]1CC[C@H](NCc2c(F)cccc2Cl)CC1)c1cc(C(F)(F)F)cc(C(F)(F)F)c1` [Compound 34, N-((trans-4-(2-chloro-6-fluorobenzylamino)cyclohexyl)methyl)-3,5-bis(trifluoromethyl)benzamide]: the IC50 in test [1] was at most 0.3 µM; in test [2] it was 1.97 µM.

For `O=C(NC[C@H]1CC[C@H](NCC(=O)N2CCC(F)(F)C2)CC1)c1cc(C(F)(F)F)cc(C(F)(F)F)c1` [Compound 61, N-((trans-4-(2-(3,3-difluoropyrrolidin-1-yl)-2-oxoethylamino)cyclohexyl)methyl)-3,5-bis(trifluoromethyl)benzamide], the IC50 in test [1] amounted to 1.59 µM; in test [2], 1.73 µM.

With `COc1cc(F)cc(C(=O)NC[C@H]2CC[C@@H](NCC(=O)N(C)C3(C)CCC3)CC2)c1` [Compound 215, 3-fluoro-5-methoxy-N-(((1s,4s)-4-(2-(methyl(1-methylcyclobutyl)amino)-2-oxoethylamino)cyclohexyl)methyl)benzamide], the IC50 in test [1] worked out at 1.99 µM; in test [2] it was 0.41 µM.

As to `O=C(NC[C@H]1CC[C@@H](NCc2cccc(F)c2O)CC1)c1cc(F)cc(C(F)(F)F)c1` [Compound 21, 3-fluoro-N-((cis-4-(3-fluoro-2-hydroxybenzylamino)cyclohexyl)methyl)-5-(trifluoromethyl)benzamide], the IC50 in test [1] is 0.84 µM; in test [2] it was 4.58 µM.

Regarding `CC(C)(C)NC(=O)CN[C@H]1CC[C@@H](CNC(=O)c2cc(F)cc(Cl)c2)CC1` [Compound 186, N-(((1s,4s)-4-(2-(tert-butylamino)-2-oxoethylamino)cyclohexyl)methyl)-3-chloro-5-fluorobenzamide], the IC50 in test [1] is 1.18 µM; in test [2], 0.26 µM.

Consider `COc1cc(C(=O)NC[C@H]2CC[C@@H](NCCNC(=O)OC(C)(C)C)CC2)cc(C(F)(F)F)c1` [Compound 100, tert-butyl 2-(cis-4-((3-methoxy-5-(trifluoromethyl)benzamido)methyl)cyclohexylamino)ethylcarbamate], for which the IC50 was determined as 1.03 µM in test [1] and 0.85 µM in test [2].

For `O=C(NC[C@H]1CC[C@@H](NC(=O)[C@@H]2CC[C@H](c3ccccc3)N2)CC1)c1cc(C(F)(F)F)cc(C(F)(F)F)c1` [Compound 127, (2S,5R)-N-(cis-4-((3,5-bis(trifluoromethyl)benzamido)methyl)cyclohexyl)-5-phenylpyrrolidine-2-carboxamide], the IC50 came to 1.1 µM in test [1] and 4.93 µM in test [2].

As to `CN(C(=O)CN[C@H]1CC[C@H](CNC(=O)c2cc(F)cc(Cl)c2)CC1)C(C)(C)C` [Compound 205, N-(((1r,4r)-4-(2-(tert-butyl(methyl)amino)-2-oxoethylamino)cyclohexyl)methyl)-3-chloro-5-fluorobenzamide], the IC50 in test [1] was 2.02 µM; in test [2], 1.1 µM.

In the case of `O=C(NC[C@H]1CC[C@@H](NCc2c(F)cccc2Cl)CC1)c1cc(C(F)(F)F)cc(C(F)(F)F)c1` [Compound 13, N-((cis-4-(2-chloro-6-fluorobenzylamino)cyclohexyl)methyl)-3,5-bis(trifluoromethyl)benzamide], the figures for the IC50 in test [1] and in test [2] were 0.46 µM and 2.83 µM, respectively.

For `CC(C)(C)NC(=O)CN[C@H]1CC[C@@H](CNC(=O)c2cccc(Cl)c2)CC1` [Compound 179, N-(((1s,4s)-4-(2-(tert-butylamino)-2-oxoethylamino)cyclohexyl)methyl)-3-chlorobenzamide], the half-maximal inhibitory concentration (IC50) in test [1] was found to be 2.92 µM; in test [2] it was 1.32 µM.

With `CC(C)(C)NC(=O)CN[C@H]1CC[C@@H](CNC(=O)c2cccc(Br)c2)CC1` [Compound 183, 3-bromo-N-(((1s,4s)-4-(2-(tert-butylamino)-2-oxoethylamino)cyclohexyl)methyl)benzamide], the IC50 amounted to 2.24 µM in test [1] and 0.82 µM in test [2].

`COc1cc(F)cc(C(=O)NC[C@H]2CC[C@H](NCC(=O)NC(C)(C)C)CC2)c1` [Compound 206, N-(((1r,4r)-4-(2-(tert-butylamino)-2-oxoethylamino)cyclohexyl)methyl)-3-fluoro-5-methoxybenzamide]: the IC50 came out at 4.42 µM in test [1] and 1.03 µM in test [2].

In the case of `CC(C)(C)NC(=O)CN[C@H]1CC[C@H](CNC(=O)c2cccc(OC(F)(F)F)c2)CC1` [Compound 189, N-(((1r,4r)-4-(2-(tert-butylamino)-2-oxoethylamino)cyclohexyl)methyl)-3-(trifluoromethoxy)benzamide], the results for the IC50 in test [1] and in test [2] were 3.66 µM and 1.66 µM, respectively.
